Tests used:
Type in all cases: biochemical
VEGFR2 [1] = molecular target: T1, VEGFR2 (Homo sapiens, UniProt P35968); experiment: Assay I: kinase inhibition (HTRF KinEASE-TK), VEGFR2; details: Table 1; ATP working concentration 5 μM, substrate TK 1 μM
T1 construct: purchased Carna 08-191

FGFR1 V561M [2] = molecular target: T2, FGFR1 V561M (Homo sapiens, UniProt P11362, V561M); experiment: Assay I: inhibitory activity against FGFR mutants (HTRF KinEASE-TK); details: Table 1; ATP working concentration 5 μM, substrate TK 1 μM
T2 construct: purchased Signalchem F04-13G
T2 sequence (P11362 22-822 V561M): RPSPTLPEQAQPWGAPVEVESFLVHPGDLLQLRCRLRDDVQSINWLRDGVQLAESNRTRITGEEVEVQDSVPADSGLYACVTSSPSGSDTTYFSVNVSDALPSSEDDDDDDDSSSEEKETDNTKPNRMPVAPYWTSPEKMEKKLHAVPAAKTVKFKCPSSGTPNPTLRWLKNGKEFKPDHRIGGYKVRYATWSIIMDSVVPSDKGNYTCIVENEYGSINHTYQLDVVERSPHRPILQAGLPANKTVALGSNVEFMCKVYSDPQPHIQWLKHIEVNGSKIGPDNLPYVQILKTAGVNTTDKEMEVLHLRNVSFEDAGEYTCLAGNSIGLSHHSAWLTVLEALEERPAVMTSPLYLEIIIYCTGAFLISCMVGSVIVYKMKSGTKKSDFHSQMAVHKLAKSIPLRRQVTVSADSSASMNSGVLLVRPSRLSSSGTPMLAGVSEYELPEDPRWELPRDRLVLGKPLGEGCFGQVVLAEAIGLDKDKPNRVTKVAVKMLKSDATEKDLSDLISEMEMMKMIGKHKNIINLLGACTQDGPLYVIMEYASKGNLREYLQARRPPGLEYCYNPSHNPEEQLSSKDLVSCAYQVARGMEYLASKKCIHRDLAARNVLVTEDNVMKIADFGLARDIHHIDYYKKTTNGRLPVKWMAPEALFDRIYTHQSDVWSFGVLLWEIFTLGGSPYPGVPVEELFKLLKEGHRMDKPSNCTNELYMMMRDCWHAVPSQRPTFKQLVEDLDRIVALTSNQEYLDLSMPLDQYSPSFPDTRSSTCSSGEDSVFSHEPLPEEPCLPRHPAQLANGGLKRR
Experimental: (§1) Assay I: Determination of Inhibitory Activity Against FGFR Mutants
(§2) 1×Kinase reaction buffer was formulated with 1×volume of 5× kinase reaction buffer and 4×volume of water; 5 mM MgCl2; and 1 mM DTT.
(§3) 2.3 Screening of Compounds: • 1. […] Adding 1 μl of the compound diluted in buffer to each well, sealing the plate with a sealing membrane and centrifuging the plate at 1000 g for 30 seconds and leaving it at room temperature for 10 minutes. • 6. Formulating 2.5×TK-substrate-biotin and ATP mixture with 1× enzyme reaction buffer and adding 2 μl of K-substrate-biotin/ATP mixture to the reaction plate. • 7. Sealing the plate with a sealing membrane and centrifuging the plate at 1000 g for 30 seconds and allowing it to react at room temperature for 50 minutes. • 8. […] 3. Data Analysis
(§4) 3.3 Calculation of IC50 and plotting of inhibition curves for the compounds.
(§5) The IC50 (half inhibition concentration) of a compound was obtained using the following non-linear fitting equation, wherein data analysis was performed using Graphpad 6.0 software.
(§6) Data were exported from Envision and analyzed manually. The ratios were converted to inhibition rates and IC50 was calculated by Prism GraphPad 6.0 from the inhibition rates. IC50 was calculated again by the ratios to verify accuracy of the results.

FGFR2 V564F [3] = molecular target: T3, FGFR2 V564F (Homo sapiens, UniProt P21802, V564F); experiment: as above; details: Table 1; ATP working concentration 10 μM, substrate TK 1 μM
T3 construct: purchased Signalchem F05-12FG
T3 sequence (P21802 22-821 V564F): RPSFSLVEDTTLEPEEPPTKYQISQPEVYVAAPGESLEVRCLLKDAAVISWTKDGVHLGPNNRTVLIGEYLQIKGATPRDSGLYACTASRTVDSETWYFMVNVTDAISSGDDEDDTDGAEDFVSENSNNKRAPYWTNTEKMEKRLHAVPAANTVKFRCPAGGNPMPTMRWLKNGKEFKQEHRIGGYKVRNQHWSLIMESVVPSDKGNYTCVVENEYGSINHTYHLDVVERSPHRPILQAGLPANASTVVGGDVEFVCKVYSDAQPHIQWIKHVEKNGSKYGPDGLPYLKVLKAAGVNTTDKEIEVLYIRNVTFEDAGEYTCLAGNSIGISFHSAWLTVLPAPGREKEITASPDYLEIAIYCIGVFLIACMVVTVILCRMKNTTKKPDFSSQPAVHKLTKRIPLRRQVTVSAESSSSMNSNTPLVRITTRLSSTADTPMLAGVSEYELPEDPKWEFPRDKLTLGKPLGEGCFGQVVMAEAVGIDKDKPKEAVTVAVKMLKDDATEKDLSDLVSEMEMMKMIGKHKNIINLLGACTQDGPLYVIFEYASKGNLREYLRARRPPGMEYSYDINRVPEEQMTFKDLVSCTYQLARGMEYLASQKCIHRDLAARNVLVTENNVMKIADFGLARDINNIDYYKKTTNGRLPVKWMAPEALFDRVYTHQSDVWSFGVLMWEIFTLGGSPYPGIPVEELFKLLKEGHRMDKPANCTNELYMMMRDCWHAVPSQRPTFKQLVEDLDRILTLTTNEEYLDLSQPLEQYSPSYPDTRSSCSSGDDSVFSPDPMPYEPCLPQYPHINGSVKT
Experimental: as §1, §2, §3, §4, §5, §6

FGFR3 V555M [4] = molecular target: T4, FGFR3 V555M (Homo sapiens, UniProt P22607, V555M); experiment: as above; details: Table 1; ATP working concentration 20 μM, substrate TK 1 μM
T4 construct: purchased Signalchem F06-12GG
T4 sequence (P22607 23-806 V555M): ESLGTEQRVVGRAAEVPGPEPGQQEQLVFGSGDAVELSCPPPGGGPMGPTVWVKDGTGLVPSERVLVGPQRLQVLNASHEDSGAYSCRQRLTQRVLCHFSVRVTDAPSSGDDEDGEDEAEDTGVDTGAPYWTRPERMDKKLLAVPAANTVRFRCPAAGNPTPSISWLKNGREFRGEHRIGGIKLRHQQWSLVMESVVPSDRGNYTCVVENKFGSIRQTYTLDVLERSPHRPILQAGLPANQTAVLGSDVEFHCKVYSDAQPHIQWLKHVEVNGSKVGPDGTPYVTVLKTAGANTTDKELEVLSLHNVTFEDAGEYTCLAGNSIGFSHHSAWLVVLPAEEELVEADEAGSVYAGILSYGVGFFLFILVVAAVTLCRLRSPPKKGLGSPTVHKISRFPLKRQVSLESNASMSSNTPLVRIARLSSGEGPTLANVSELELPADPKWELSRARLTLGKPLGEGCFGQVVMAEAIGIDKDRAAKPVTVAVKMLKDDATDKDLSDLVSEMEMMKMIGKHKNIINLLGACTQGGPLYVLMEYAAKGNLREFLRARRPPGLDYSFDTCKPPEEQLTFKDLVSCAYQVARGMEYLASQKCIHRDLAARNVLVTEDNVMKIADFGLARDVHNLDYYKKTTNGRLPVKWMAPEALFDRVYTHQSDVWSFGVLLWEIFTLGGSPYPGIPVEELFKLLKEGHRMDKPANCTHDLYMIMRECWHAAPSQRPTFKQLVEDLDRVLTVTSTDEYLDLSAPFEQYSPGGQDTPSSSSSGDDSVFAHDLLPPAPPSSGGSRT
Experimental: as §1, §2
(§7) 2.3 Screening of Compounds: • 1. Diluting a compound 4-fold in a dilution plate with DMSO, with a starting compound concentration of 2 mM (4 mM for Nentedanib). • 2. Diluting the compound 40-fold into 1× kinase reaction buffer and shaking it on a shaker for 20 minutes. • 3. […] Adding 1 μl of the compound diluted in buffer to each well, sealing the plate with a sealing membrane and centrifuging the plate at 1000 g for 30 seconds and leaving it at room temperature for 10 minutes. • 6. Formulating 2.5×TK-substrate-biotin and ATP mixture with 1× enzyme reaction buffer and adding 2 μl of K-substrate-biotin/ATP mixture to the reaction plate. • 7. Sealing the plate with a sealing membrane and centrifuging the plate at 1000 g for 30 seconds and allowing it to react at room temperature for 50 minutes. • 8. Formulating 4×Sa-XL 665 (250 nM) with HTRF assay buffer. • 9. Adding 5 μl Sa-XL 665 and 5 μl TK-Antibody-Cryptate to each well, centrifuging it at 1000 g for 30 seconds, and allowing it to react for 1 hour at room temperature. • 10. Reading fluorescence signals at 615 nm (Cryptate) and 665 nm (XL665) with Biotek. 3. Data Analysis
(§8) 3.1 Calculation of the ratio for each well: the ratio was calculated as 665/615 nm.
as §4, §5, §6

VEGFR2 [5] = molecular target: T1, VEGFR2; experiment: Assay III: kinase inhibition (method of Assay I, different operator), VEGFR2; details: Table 3; same method as Assay I, different experimental operator
Experimental: as §2
2.3 Screening of Compounds: • 1. Diluting a compound 4-fold in a dilution plate with DMSO, with a starting compound concentration of 2 mM (4 mM for Nentedanib). • 2. Diluting the compound 40-fold into 1× kinase reaction buffer and shaking it on a shaker for 20 minutes. • 3. Formulating 2×FGFR1 V561M/FGFR2 V564F/FGFR3 K650E/VEGFR2 with 1× of enzyme reaction buffer. • 4. Adding 2 μl FGFR1 V561M/FGFR2 V564F/FGFR3 K650E/VEGFR2 kinase (formulated in step 3) to each well of the reaction plate. • 5. Adding 1 μl of the compound diluted in buffer to each well, sealing the plate with a sealing membrane and centrifuging the plate at 1000 g for 30 seconds and leaving it at room temperature for 10 minutes. • 6. Formulating 2.5×TK-substrate-biotin and ATP mixture with 1× enzyme reaction buffer and adding 2 μl of K-substrate-biotin/ATP mixture to the reaction plate. • 7. Sealing the plate with a sealing membrane and centrifuging the plate at 1000 g for 30 seconds and allowing it to react at room temperature for 50 minutes. • 8. Formulating 4×Sa-XL 665 (250 nM) with HTRF assay buffer. • 9. Adding 5 μl Sa-XL 665 and 5 μl TK-Antibody-Cryptate to each well, centrifuging it at 1000 g for 30 seconds, and allowing it to react for 1 hour at room temperature. • 10. Reading fluorescence signals at 615 nm (Cryptate) and 665 nm (XL665) with Biotek. 3. Data Analysis
as §8, §4
The IC50 (half inhibition concentration) of a compound was obtained using the following non-linear fitting equation, wherein data analysis was performed using Graphpad 6.0 software. Y=Bottom+(Top−Bottom)/(1+10^((Log IC50−X)*Hill Slope)) • X: log value of compound concentration; and Y: inhibition rate (% inh) 3.4 Validation of Results
as §6
(§9) Assay III: Determination of Inhibitory Activity Against FGFR Mutants

FGFR1 V561M [6] = molecular target: T2, FGFR1 V561M; experiment: Assay III: inhibitory activity against FGFR mutants (method of Assay I, different operator); details: Table 3; same method as Assay I, different experimental operator
Experimental: as §2, §7, §8, §4, §5, §6, §9

FGFR2 V564F [7] = molecular target: T3, FGFR2 V564F; experiment: as above; details: Table 3; same method as Assay I, different experimental operator
Experimental: as §2, §7, §8, §4, §5, §6, §9

FGFR3 V555M [8] = molecular target: T4, FGFR3 V555M; experiment: as above; details: Table 3; same method as Assay I, different experimental operator
Experimental: as §2, §7, §8, §4, §5, §6, §9

T1 sequence (P35968 20-1356): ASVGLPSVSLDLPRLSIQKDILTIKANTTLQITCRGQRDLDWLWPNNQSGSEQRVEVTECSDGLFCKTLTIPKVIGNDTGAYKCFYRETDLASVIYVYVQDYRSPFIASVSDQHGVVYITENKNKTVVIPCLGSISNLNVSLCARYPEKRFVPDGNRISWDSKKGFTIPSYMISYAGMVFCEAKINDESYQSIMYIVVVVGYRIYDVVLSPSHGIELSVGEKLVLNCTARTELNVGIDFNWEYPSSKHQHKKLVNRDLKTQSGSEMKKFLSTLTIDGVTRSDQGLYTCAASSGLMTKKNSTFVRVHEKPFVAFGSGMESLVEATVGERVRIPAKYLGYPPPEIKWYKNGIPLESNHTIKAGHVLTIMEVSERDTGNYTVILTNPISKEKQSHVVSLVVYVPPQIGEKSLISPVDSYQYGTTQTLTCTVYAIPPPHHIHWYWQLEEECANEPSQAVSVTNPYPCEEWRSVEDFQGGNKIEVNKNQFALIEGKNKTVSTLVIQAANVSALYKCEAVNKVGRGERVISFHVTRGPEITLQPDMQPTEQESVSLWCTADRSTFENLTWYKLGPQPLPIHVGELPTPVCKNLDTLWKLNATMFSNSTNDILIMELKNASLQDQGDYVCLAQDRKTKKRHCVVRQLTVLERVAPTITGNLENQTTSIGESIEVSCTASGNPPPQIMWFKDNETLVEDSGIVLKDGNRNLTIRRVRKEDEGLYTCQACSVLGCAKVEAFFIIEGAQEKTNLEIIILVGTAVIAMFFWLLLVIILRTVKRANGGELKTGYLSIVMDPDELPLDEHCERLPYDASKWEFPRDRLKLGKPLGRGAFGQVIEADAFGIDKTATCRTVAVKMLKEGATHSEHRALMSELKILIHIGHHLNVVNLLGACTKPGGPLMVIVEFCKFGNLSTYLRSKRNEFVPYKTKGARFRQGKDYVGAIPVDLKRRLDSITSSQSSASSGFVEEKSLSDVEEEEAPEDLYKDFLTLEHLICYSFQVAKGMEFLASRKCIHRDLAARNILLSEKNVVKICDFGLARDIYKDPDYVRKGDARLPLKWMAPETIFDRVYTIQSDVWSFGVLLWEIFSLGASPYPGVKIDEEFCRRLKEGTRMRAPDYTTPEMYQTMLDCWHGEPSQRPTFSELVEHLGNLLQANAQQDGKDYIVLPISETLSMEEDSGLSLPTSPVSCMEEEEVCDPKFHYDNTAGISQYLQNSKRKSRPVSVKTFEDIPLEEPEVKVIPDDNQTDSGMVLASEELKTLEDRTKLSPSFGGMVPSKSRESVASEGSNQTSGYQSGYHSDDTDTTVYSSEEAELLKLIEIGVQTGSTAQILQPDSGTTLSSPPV

Row | SMILES | IC50 (VEGFR2 [1]) | IC50 (FGFR1 V561M [2]) | IC50 (FGFR2 V564F [3]) | IC50 (FGFR3 V555M [4]) | IC50 (VEGFR2 [5]) | IC50 (FGFR1 V561M [6]) | IC50 (FGFR2 V564F [7]) | IC50 (FGFR3 V555M [8])
1 | CC(Oc1ccc2[nH]nc(C(=O)Nc3ccc(N4CC[C@@H](O)C4)cc3)c2c1)c1c(Cl)cncc1Cl (stereo partly drawn) [Compound 3, 5-(1-(3,5-dichloropyridin-4-yl)ethoxy)-N-(4-((R)-3-hydroxypyrrolidin-1-yl)phenyl)-1H-indazole-3-carboxamide] | > 10000 nM | 69.7 nM | 22.1 nM | – | – | – | – | –
2 | CC(Oc1ccc2[nH]nc(C(=O)Nc3ccc(N4CCOCC4)nc3)c2c1)c1c(Cl)cncc1Cl (centres unmarked) [Compound 4, 5-(1-(3,5-dichloropyridin-4-yl)ethoxy)-N-(6-morpholinopyridin-3-yl)-1H-indazole-3-carboxamide] | 1590 nM | 95.1 nM | 9.5 nM | – | – | – | – | –
3 | CC(Oc1ccc2[nH]nc(C(=O)Nc3cnn(CCC#N)c3)c2c1)c1c(Cl)cncc1Cl (centres unmarked) [Compound 11, N-(1-(2-cyanoethyl)-1H-pyrazol-4-yl)-5-(1-(3,5-dichloropyridin-4-yl)ethoxy)-1H-indazole-3-carboxamide] | 230 nM | 5.6 nM | 1.1 nM | 1.7 nM | – | – | – | –
4 | CC(Oc1ccc2[nH]nc(C(=O)Nc3ccc(N4CCC(O)CC4)cc3)c2c1)c1c(Cl)cncc1Cl (centres unmarked) [Compound 13, 5-(1-(3,5-dichloropyridin-4-yl)ethoxy)-N-(4-(4-hydroxypiperidin-1-yl)phenyl)-1H-indazole-3-carboxamide] | > 10000 nM | 6.8 nM | 8.9 nM | 5.9 nM | – | – | – | –
5 | CC(Oc1ccc2[nH]nc(C(=O)Nc3cnn(CCC4(O)CC4)c3)c2c1)c1c(Cl)cncc1Cl (centres unmarked) [Compound 15, 5-(1-(3,5-dichloropyridin-4-yl)ethoxy)-N-(1-(2-(1-hydroxycyclopropyl)ethyl)-1H-pyrazol-4-yl)-1H-indazole-3-carboxamide] | 66.2 nM | 2.2 nM | 0.84 nM | 2.1 nM | – | – | – | –
6 | CC(Oc1ccc2[nH]nc(C(=O)Nc3ccc(N4C[C@@H](C)N[C@@H](C)C4)cn3)c2c1)c1c(Cl)cncc1Cl (stereo partly drawn) [Compound 16, 5-(1-(3,5-dichloropyridin-4-yl)ethoxy)-N-(5-((3S, 5R)-3,5-dimethylpiperazin-1-yl)pyridin-2-yl)-1H-indazole-3-carboxamide] | 1210 nM | 22.8 nM | 34.1 nM | 41.7 nM | – | – | – | –
7 | C[C@@H](Oc1ccc2[nH]nc(C(=O)Nc3cnn(CC4CCN(C)C4)c3)c2c1)c1c(Cl)cncc1Cl (stereo partly drawn) [Compound 41, 5-((R)-1-(3,5-dichloropyridin-4-yl)ethoxy)-N-(1-((1-methylpyrrolidin-3-yl)methyl)-1H-pyrazol-4-yl)-1H-indazole-3-carboxamide] | – | – | – | – | 84 nM | 0.37 nM | 0.18 nM | 0.22 nM
8 | C[C@@H](Oc1ccc2[nH]nc(C(=O)Nc3cnn(CC4CCCN4C)c3)c2c1)c1c(Cl)cncc1Cl (some centres unmarked) [Compound 42] | – | – | – | – | 169 nM | 1.1 nM | 0.43 nM | 0.44 nM
9 | C[C@@H](Oc1ccc2[nH]nc(C(=O)Nc3cnn(C4CCN(C)C4)c3)c2c1)c1c(Cl)cncc1Cl (stereo partly drawn) [Compound 43, 5-((R)-1-(3,5-dichloropyridin-4-yl)ethoxy)-N-(1-(1-methylpyrrolidin-3-yl)-1H-pyrazol-4-yl)-1H-indazole-3-carboxamide] | – | – | – | – | 62 nM | 0.38 nM | 0.15 nM | 0.14 nM
10 | C[C@@H](Oc1ccc2[nH]nc(C(=O)Nc3cnn(CC4CCCN(C)C4)c3)c2c1)c1c(Cl)cncc1Cl (stereo partly drawn) [Compound 44, 5-((R)-1-(3,5-dichloropyridin-4-yl)ethoxy)-N-(1-((1-methylpiperidin-3-yl)methyl)-1H-pyrazol-4-yl)-1H-indazole-3-carboxamide] | – | – | – | – | 145 nM | 1.1 nM | 0.39 nM | 0.55 nM
11 | C[C@@H](Oc1ccc2[nH]nc(C(=O)Nc3cnn(CC4CCCCN4C)c3)c2c1)c1c(Cl)cncc1Cl (stereo partly drawn) [Compound 45, 5-((R)-1-(3,5-dichloropyridin-4-yl)ethoxy)-N-(1-((1-methylpiperidin-2-yl)methyl)-1H-pyrazol-4-yl)-1H-indazole-3-carboxamide] | – | – | – | – | 62 nM | 0.34 nM | 0.1 nM | 0.14 nM
12 | CCC(Oc1ccc2[nH]nc(C(=O)Nc3cnn(C)c3)c2c1)c1c(Cl)cncc1Cl (centres unmarked) [Compound 46, 5-(1-(3,5-dichloropyridin-4-yl)propoxy)-N-(1-methyl-1H-pyrazol-4-yl)-1H-indazole-3-carboxamide] | – | – | – | – | 184 nM | 3.4 nM | 1 nM | 2.1 nM
13 | C[C@@H](Oc1ccc2[nH]nc(C(=O)Nc3cnn(C4CCOCC4)c3)c2c1)c1c(Cl)cncc1Cl [Compound 47, (R)-5-(1-(3,5-dichloropyridin-4-yl)ethoxy)-N-(1-(tetrahydro-2H-pyran-4-yl)-1H-pyrazol-4-yl)-1H-indazole-3-carboxamide] | – | – | – | – | 194 nM | 2.3 nM | 1.2 nM | 2.1 nM
14 | C[C@@H](Oc1ccc2[nH]nc(C(=O)Nc3cnn(C4CCC(O)CC4)c3)c2c1)c1c(Cl)cncc1Cl (stereo partly drawn) [Compound 48, (R)-5-(1-(3,5-dichloropyridin-4-yl)ethoxy)-N-(1-(4-hydroxycyclohexyl)-1H-pyrazol-4-yl)-1H-indazole-3-carboxamide] | – | – | – | – | 115 nM | 1 nM | 0.31 nM | 0.82 nM
15 | C[C@@H](Oc1ccc2[nH]nc(C(=O)Nc3cnn(Cc4cccnc4)c3)c2c1)c1c(Cl)cncc1Cl [Compound 49, (R)-5-(1-(3,5-dichloropyridin-4-yl)ethoxy)-N-(1-(pyridin-3-ylmethyl)-1H-pyrazol-4-yl)-1H-indazole-3-carboxamide] | – | – | – | – | 110 nM | 0.51 nM | 0.55 nM | 1.4 nM
16 | C[C@@H](Oc1ccc2[nH]nc(C(=O)Nc3cnn(Cc4ccncc4)c3)c2c1)c1c(Cl)cncc1Cl [Compound 50, (R)-5-(1-(3,5-dichloropyridin-4-yl)ethoxy)-N-(1-(pyridin-4-ylmethyl)-1H-pyrazol-4-yl)-1H-indazole-3-carboxamide] | – | – | – | – | 152 nM | 1.7 nM | 0.37 nM | 0.64 nM
